This note sets out measurements from patent US12011444B2, “N-substituted indole derivatives as PGE2 receptor modulators” (Idorsia Pharmaceuticals Ltd, priority 2015, dated 2024).

Assay [1] concerns the target PTRGER4 (EP4) (Homo sapiens (Human), UniProt P35408). Description: hEP4 b-arrestin assay (PathHunter HEK 293 PTGER4 b-arrestin cells). Particulars: antagonistic activity on hEP4; mean where measured multiple times. The format is cell-based. Put shortly: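 Stably transfected HEK293 cells carrying EP4–ProLink and β-arrestin 2–EA (β-gal fragment complementation), pre-incubated with compound 15 min at 37 °C, then stimulated with PGE2 (20 nM final) for 120 min at 37 °C. Chemiluminescence read after 1 h detection reagent at room temperature; activity per concentration expressed as percent of DMSO control.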

Assay [2] addresses PTGER2 (EP2) (Homo sapiens (Human), UniProt P43116). Briefly: hEP2 b-arrestin assay (PathHunter HEK 293 PTGER2 b-arrestin cells). It counts as cell-based. Particulars: antagonistic activity on hEP2; mean where measured multiple times. Put shortly:
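HEK293 cells expressing ProLink-tagged EP2 and EA-fused β-arrestin 2 (enzyme fragment complementation) were seeded 24 h, pre-incubated with compound 15 min at 37 °C, then stimulated with 5 μM PGE2 (final) for 120 min.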

Sequence of PTRGER4 (EP4) (P35408 whole entry, looked up, the tested form may be a part): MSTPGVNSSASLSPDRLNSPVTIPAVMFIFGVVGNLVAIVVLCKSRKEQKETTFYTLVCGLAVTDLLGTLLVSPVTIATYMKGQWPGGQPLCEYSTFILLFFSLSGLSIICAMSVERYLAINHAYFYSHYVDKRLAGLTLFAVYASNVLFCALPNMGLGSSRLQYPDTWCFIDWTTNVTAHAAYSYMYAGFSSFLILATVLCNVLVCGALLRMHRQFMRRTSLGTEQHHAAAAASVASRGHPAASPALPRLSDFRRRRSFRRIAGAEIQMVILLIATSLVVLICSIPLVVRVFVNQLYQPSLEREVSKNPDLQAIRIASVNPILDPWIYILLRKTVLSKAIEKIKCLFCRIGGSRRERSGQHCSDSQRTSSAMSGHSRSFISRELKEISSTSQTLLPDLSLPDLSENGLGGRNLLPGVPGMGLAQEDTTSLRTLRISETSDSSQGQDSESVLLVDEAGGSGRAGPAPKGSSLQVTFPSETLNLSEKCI
Sequence of PTGER2 (EP2) (P43116 whole entry, the tested form may be a part): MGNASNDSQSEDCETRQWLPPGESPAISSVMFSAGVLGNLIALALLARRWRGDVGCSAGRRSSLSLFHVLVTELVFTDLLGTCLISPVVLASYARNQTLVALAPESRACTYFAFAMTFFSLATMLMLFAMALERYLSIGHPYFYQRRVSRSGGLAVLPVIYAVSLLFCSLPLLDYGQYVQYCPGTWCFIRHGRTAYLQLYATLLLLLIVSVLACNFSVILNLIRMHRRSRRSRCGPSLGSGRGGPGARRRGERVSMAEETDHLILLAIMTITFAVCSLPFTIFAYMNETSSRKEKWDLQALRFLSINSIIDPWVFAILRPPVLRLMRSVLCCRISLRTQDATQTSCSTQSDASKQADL

As usually defined, the IC50 is the concentration that inhibits the measured activity by half. Read a low IC50 as inhibition by little substance. Regarding `CCCSc1cc(-c2cc(NCCn3c(C)cc4c(C)ccc(Cl)c43)ncn2)ccc1C(=O)O` [compound 334, 4-{6-[2-(7-Chloro-2,4-dimethyl-indol-1-yl)-ethylamino]-pyrimidin-4-yl}-2-propylsulfanyl-benzoic acid], the IC50 in assay [1] came out at 603 nM; in assay [2], 28 nM.

For the compound `CCCc1cc(-c2cc(NCCn3c(C)cc4cc(C)cc(Cl)c43)ncn2)cc(Cl)c1C(=O)O` [compound 335], the IC50 was determined as 468 nM in assay [1] and 56 nM in assay [2].

Consider `Cc1ccc(F)c2c1cc(C)n2CCNc1cc(-c2ccc(C(=O)O)c(CC(C)C)c2)ncn1` [compound 336, 4-{6-[2-(7-Fluoro-2,4-dimethyl-indol-1-yl)-ethylamino]-pyrimidin-4-yl}-2-isobutyl-benzoic acid], for which the IC50 turned out to be 199 nM in assay [1] and 46 nM in assay [2].

Regarding `CCCc1cc(-c2cc(NCCn3c(C)cc4c(CC)ccc(F)c43)ncn2)ccc1C(=O)O` [compound 338], the IC50 in assay [1] was found to be 357 nM; in assay [2], 858 nM.

On to `CSc1cc(-c2cc(NCCn3c(C)cc4c(F)c(F)cc(Cl)c43)ncn2)cc(Cl)c1C(=O)O` [compound 339, 2-Chloro-4-{6-[2-(7-chloro-4,5-difluoro-2-methyl-indol-1-yl)-ethylamino]-pyrimidin-4-yl}-6-methylsulfanyl-benzoic acid], for which the results for the IC50 in assay [1] and in assay [2] were 989 nM and 5 nM, respectively.

For `CCCc1cc(-c2cc(NCCn3c(C)cc4c(F)ccc(Cl)c43)ncn2)cc(F)c1C(=O)O` [compound 340, 4-{6-[2-(7-Chloro-4-fluoro-2-methyl-indol-1-yl)-ethylamino]-pyrimidin-4-yl}-2-fluoro-6-propyl-benzoic acid], the IC50 is 645 nM in assay [1] and 5 nM in assay [2].

With `CCSc1cc(-c2cc(NCCn3c(C)cc4c(C)c(F)cc(Cl)c43)ncn2)ccc1C(=O)O` [compound 341, 4-{6-[2-(7-Chloro-5-fluoro-2,4-dimethyl-indol-1-yl)-ethylamino]-pyrimidin-4-yl}-2-ethylsulfanyl-benzoic acid], the IC50 in assay [1] worked out at 396 nM; in assay [2] it was 42 nM.

For `CCCc1cc(-c2cc(NCCn3c(C)cc4c(F)ccc(Cl)c43)ncn2)cc(Cl)c1C(=O)O` [compound 342, 2-Chloro-4-{6-[2-(7-chloro-4-fluoro-2-methyl-indol-1-yl)-ethylamino]-pyrimidin-4-yl}-6-propyl-benzoic acid], the IC50 in assay [1] was 621 nM; in assay [2], 5 nM.

In the case of `CCOc1cc(-c2cc(NCCn3c(C)cc4c(C)c(F)cc(Cl)c43)ncn2)ccc1C(=O)O` [compound 344, 4-{6-[2-(7-Chloro-5-fluoro-2,4-dimethyl-indol-1-yl)-ethylamino]-pyrimidin-4-yl}-2-ethoxy-benzoic acid], the 50% inhibitory concentration (IC50) in assay [1] came out at 319 nM; in assay [2], 34 nM.

For `CCc1cc(-c2cc(NCCn3c(C)cc4c(OC)ccc(Cl)c43)ncn2)cc(Cl)c1C(=O)O` [compound 345], the IC50 in assay [1] is 164 nM; in assay [2], 89 nM.

With `CCc1cc(-c2cc(NCCn3c(C)cc4c(OC)ccc(F)c43)ncn2)cc(Cl)c1C(=O)O` [compound 346], the IC50 in assay [1] was found to be 50 nM; in assay [2] it was 56 nM.

Turning to `CCOc1cc(-c2cc(NCCn3c(C)cc4c(C)ccc(F)c43)ncn2)cc(C)c1C(=O)O` [compound 347, 2-Ethoxy-4-{6-[2-(7-fluoro-2,4-dimethyl-indol-1-yl)-ethylamino]-pyrimidin-4-yl}-6-methyl-benzoic acid], the concentration for half-maximal inhibition (IC50) amounted to 239 nM in assay [1] and 11 nM in assay [2].

On to `CCCc1cc(-c2cc(NCCn3c(C)cc4c(OC)ccc(F)c43)ncn2)ccc1C(=O)O` [compound 348, 4-{6-[2-(7-Fluoro-4-methoxy-2-methyl-indol-1-yl)-ethylamino]-pyrimidin-4-yl}-2-propyl-benzoic acid], for which the IC50 in assay [1] was found to be 76 nM; in assay [2], 5 nM.
